# Source: paper PMC7571160, “Dibromopinocembrin and Dibromopinostrobin Are Potential Anti-Dengue Leads with Mild Animal Toxicity” (Molecules, 2020)
# Where two headings read alike, the source gives them in different places.
# Key:
# DENV2 = system: DENV2; design: method as in PMID 29360474; details: cited from earlier work
# DENV 4 = system: DENV 4; design: method as in PMID 29360474; details: read-out: DENV4 EC50; cited from earlier work
# [1] = Cytotoxic concentration (CC50) test, MTS, LLC/MK2; assay type: cell-based, Macaca mulatta (rhesus monkey); details: rhesus monkey, LLC/MK2 cells
# Procedure: (§1) LLC/MK2, THP-1, HEK-293, HepG2, or Huh-7 cells were seeded at 10^4 cells per well of 96-well plate and incubated overnight. Compounds were prepared to 6-10 different concentrations in filter-sterilized dimethylsulfoxide (Merck®, Darmstadt, Germany) before addition to the cells. The plates were incubated for 48 h before the MTS reagent (Promega®, Madison, WI, USA) was added to cells according to the manufacturer's protocol and incubated for 4 h before analysis by spectrophotometry at […]. Huh-7 cytotoxicity was assessed by the Alamar Blue assay (Invitrogen®, Waltham, MA, USA) and read by fluorometry at the excitation and emission wavelengths at 570 and 600 nm, respectively. Each compound was tested in triplicate. Cytotoxic concentrations (CC50) were calculated while using non-linear regression analysis and the results were reported as means and standard deviation of three independent experiments.
# [2] = Cytotoxic concentration (CC50) test, MTS, HEK-293; assay type: cell-based; details: human, HEK-293 cells, HEK-293, 48 h
# Procedure: as §1
# [3] = system: dengue virus serotype 2 (DENV2), New Guinea C strain; assay: DENV2 NGC effective concentration (EC50) test in LLC/MK2 cells, plaque titration; assay type: cell-based; details: for EC50: Dengue virus, DENV2 NGC in LLC/MK2 cells, MOI 0.1, 72 h, plaque titration; for SI NGC (CC50/EC50): LLC/MK2 CC50 / DENV2 NGC EC50
# Procedure: (§2) LLC/MK2 were seeded at 5 × 10^4 cells per well of 24-well plate in growth medium and incubated overnight at 37 °C under 5% CO2. Cells were infected with DENV2 NGC at the multiplicity of infection (MOI) of 0.1 for 1 h with gentle rocking every 15 min. Cells were washed with PBS and incubated with MEM supplemented with 1% fetal bovine serum, 100 I.U./mL penicillin, and 100 μg/mL streptomycin. The compound was added to the virus-infected cells during and after infection. The cells were incubated for 72 h, unless otherwise indicated, at 37 °C under 5% CO2. Supernatants were collected and the viral infectivity was analyzed by 96-well plaque titration. Data were plotted and the EC50 values were calculated by nonlinear regression analysis. Each concentration was tested in duplicate and the results were reported as the means and standard deviation of three independent experiments. The selectivity index was calculated from the ratio of CC50 and EC50. Moreover, additional EC50s of TH002 and TH011 were also taken from Huh-7 (8 × 10^4 cells) and DENV2 16,681 (MOI of 1). Supernatants were collected after 72 h incubation for plaque titration EC50 values were calculated by nonlinear regression analysis. Data were presented by means and standard errors of three independent experiments.
# DENV2 16681 = DENV2 16681 EC50 test in Huh-7 cells, plaque titration; assay type: cell-based, dengue virus serotype 2; details: for EC50: Dengue virus, DENV2 16681 in Huh-7 cells, MOI 1, 72 h, plaque titration; for SI (16681) (CC50/EC50): Huh-7 CC50 / DENV2 16681 EC50
# Procedure: as §2
# [4] = Cytotoxic concentration (CC50) test, MTS, THP-1; assay type: cell-based; details: human, THP-1 cells, THP-1, 48 h
# Procedure: as §1
# [5] = Cytotoxic concentration (CC50) test, MTS, HepG2; assay type: cell-based; details: human, HepG2 cells, HepG2, 48 h
# Procedure: as §1
# C57BL/6 mice = assay: Animal toxicity study, intravenous administration; assay type: in vivo, mouse; details: 10 mg/kg intravenous
# Procedure: The animal care and use protocol identification number 016-2562 was approved by the Institutional Animal Care and Use Committee (CU-ACUP) of the Faculty of Medicine, Chulalongkorn University, Bangkok, Thailand, based on the National Institutes of Health, USA’s criteria for the use and treatment of laboratory animals. Male 8-week-old C57BL/6 mice purchased from the National Laboratory Animal Center, Nakhornpathom, Thailand were used in the experiments. TH011 and TH002 were diluted with 10% DMSO in normal saline solution. The preparations were intravenously administered at the concentration of 10 mg/kg through a tail vein (n = 5/group). The 10% DMSO in normal saline solution was used as vehicle control. Blood were collected through tail vein nicking at day one, three, and eight after administration and the serum samples were kept at −80 °C until analysis. Renal function (serum creatinine; Scr) and liver function (serum alanine transaminase; ALT) were measured by colorimetric assays while using QuantiChromTM (DICT-500, BioAssay, Hayward, CA, USA) and EnzyChrom (EALT-100, BioAssay), respectively.
# [6] = Cytotoxic concentration (CC50) test, Alamar Blue, Huh-7; assay type: cell-based; details: human, Huh-7 cells; Huh-7, Alamar Blue
# Procedure: as §1
# [7] = system: DENV envelope-induced fusion; assay: Fusion inhibition study in C6/36 cells; assay type: cell-based, dengue virus serotype 2; details: 10 µM, DENV2 NGC-infected C6/36 cells, 0.5 M MES pH 5.5
# Procedure: C6/36 were seeded at 1 × 10^5 cells per well of 24-well plate MEM that was supplemented with 10% FBS and incubated overnight at 28 °C. Cells were infected with the virus at the multiplicity of infection (MOI) of 1 for 1 h at 28 °C. Compounds TH002 and TH011 were diluted in DMSO and added to the infected cells to the final concentration of 10 µM in 1% DMSO after DENV2 NGC (M.O.I. of 1) infection. Cells were incubated with MEM supplemented with 1% fetal bovine serum for 48 h before the addition of 0.5 M MES. Cells were incubated for an additional 24–48 h at 28 °C until the fused cells were visualized under light microscope.
# Figure S5. Fusion inhibition assay; TH002 and TH011 (10 µM) were incubated with the DENV2-infected cells for
# 2 days before addition of 0.5 M MES, pH 5.5. The 4G2 antibody was an inhibitor of DENV envelope fusion and
# was used as a control. Pos and Neg were abbreviated from positive (DENV) and negative (media-only) controls,
# (1 picture or pasted object on this page, not shown here)
# [8] = Solubility observations in culture media and vehicles; assay type: physicochemical; details: for Dissolution in culture media, DMSO and NSS: data not shown; for Concentration above which compound was only partially dissolved: cell culture test conditions
# DENV NS3 protease = details: cited from earlier work
# DENV NS5 polymerase = system: DENV NS5 polymerase; design: method as in PMID 22050318; details: cited from earlier work
# LLC/MK2 cells = system: LLC/MK2 cells; design: method as in Srivarangkul et al. 2018 [11]; details: ref Srivarangkul et al. 2018 [11]; cited from earlier work
# [9] = system: dengue virus serotype 2 (DENV2), New Guinea C strain; design: method as in Srivarangkul et al. 2018 [11]; details: ref Srivarangkul et al. 2018 [11]; read-out: DENV2 NGC EC50; cited from earlier work
# Zika viruses = system: Zika viruses; design: method as in PMID 30959074; details: read-out: Zika virus EC50; cited from earlier work
# [10] = design: method as in PMID 25744566; details: rat, intravenous, 10 mg, single dose; cited from earlier work
# [11] = design: method as in PMID 25744566; details: human, 20 mg, iv drip; cited from earlier work
compound,measurement,setting,value
COc1cc2c(c(O)c1C)C(=O)CC(c1ccccc1)O2 (stereo not drawn) [6-methylpinostrobin],EC50,DENV2,16 ± 5.38 µM
same,EC50,DENV 4,11.7 ± 6.04 µM
"O=C1CC(c2ccccc2)Oc2c(Br)c(O)c(Br)c(O)c21 (stereo not drawn) [TH011, 6,8-dibromo-5,7-dihydroxyflavanone]",CC50 at 48 h,[1],67.2 ± 0.973 µM
same,CC50 at 48 h,[2],93.2 ± 5.99 µM
same,EC50,[3],2.06 ± 0.754 µM
same,SI NGC (CC50/EC50),[3],32.5621
same,EC50,DENV2 16681,4.59 µM
same,SI (16681) (CC50/EC50),DENV2 16681,(10.5201)
same,CC50 at 48 h,[4],> 100 µM
same,CC50 at 48 h,[5],> 100 µM
same,ALT levels (hepatotoxicity),C57BL/6 mice; day 1 and 3,not obviously seen
same,CC50 at 48 h,[6],48.3 ± 4.11 µM
same,Inhibition of DENV envelope-induced fusion under acidic pH,[7],no fusion inhibition observed
same,"Dissolution in culture media, DMSO and NSS",[8],completely dissolved
"COc1cc(O)c2c(c1)O[C@H](c1ccccc1)CC2=O [TH019, pinostrobin]",CC50 at 48 h,[1],78.8 ± 2.92 µM
same,EC50,[3],10.8 ± 1.63 µM
same,SI NGC (CC50/EC50),[3],7.3242
same,DENV NS3 protease IC50,DENV NS3 protease,90.48 µg/mL
same,Ki,DENV NS3 protease,345 ± 70 µM
"COc1c(Br)c(O)c2c(c1Br)OC(c1ccccc1)CC2=O (stereo not drawn) [TH002, 6,8-dibromo-5-hydroxy-7-methoxyflavanone]",CC50 at 48 h,[1],> 100 µM
same,CC50 at 48 h,[2],> 100 µM
same,EC50,[3],5.86 ± 0.507 µM
same,SI NGC (CC50/EC50),[3],">17.0745,"
same,EC50,DENV2 16681,3.19 µM
same,SI (16681) (CC50/EC50),DENV2 16681,(23.9342)
same,CC50 at 48 h,[4],51.8 ± 2.3 µM
same,CC50 at 48 h,[5],49.9 ± 2.7 µM
same,ALT levels (hepatotoxicity),C57BL/6 mice; day 1 and 3,mildly elevated
same,ALT levels (hepatotoxicity),C57BL/6 mice; day 8,decreased to normal
same,CC50 at 48 h,[6],76.4 ± 7.2 µM
same,Inhibition of DENV envelope-induced fusion under acidic pH,[7],no fusion inhibition observed
same,"Dissolution in culture media, DMSO and NSS",[8],completely dissolved
"COc1c(I)c(O)c2c(c1I)OC(c1ccccc1)CC2=O (stereo not drawn) [TH012, 6,8-diiodo-5-hydroxy-7-methoxyflavanone]",CC50 at 48 h,[1],> 10 µM
same,EC50,[3],2.8 ± 1.55 µM
same,SI NGC (CC50/EC50),[3],>3.5714
same,Concentration above which compound was only partially dissolved,[8],exceeded 10 µM
"O=C1CC(c2ccccc2)Oc2cc(O)cc(O)c21 (stereo not drawn) [TH022, 5,7-dihydroxyflavanone]",Inhibition of DENV NS5 polymerase activity,DENV NS5 polymerase,not inhibit
same,CC50,LLC/MK2 cells,> 100 µM
same,SI NGC (CC50/EC50),[3],>6.47
same,EC50,[9],15.5 µM
same,DENV NS3 protease IC50,DENV NS3 protease,286.90 µg/mL
same,EC50,Zika viruses,17.4 µM
same,half-life,[10],12 to 14 min
same,half-life,[11],47 min
"COc1cc2c(c(O)c1I)C(=O)CC(c1ccccc1)O2 (stereo not drawn) [TH018, 6-iodo-5-hydroxy-7-methoxyflavanone]",CC50 at 48 h,[1],> 25 µM
same,EC50,[3],4.1 ± 1.84 µM
same,SI NGC (CC50/EC50),[3],>6.0945
same,Concentration above which compound was only partially dissolved,[8],> 25 µM
